pEC50: −log10 of the molar value.
Columns and labels:
Type in all cases: cell-based
[1] = test system: A431 cells; test: Cell growth inhibition assay (MTS assay), A431; conditions: Homo sapiens, A-431; A431 cells; MTS, 48 hours; read-out: Growth inhibition activity EC50
[2] = molecular target: T1, A431 cells EGFR-TK phosphorylation stimulated by EGF (Homo sapiens, UniProt P00533); test: Inhibition of cellular EGFR-TK phosphorylation stimulated by EGF in A431 cells; conditions: for pEC50: A431 cells EGFR-TK phosphorylation stimulated by EGF (Table 4); for inhibition at 3 µM: A-431, concentration of 3 μM, A431 cells, EGF stimulated, one-time measurement at a single concentration (preliminary selection), NA = No activity, read-out: Inhibition Percent (%)
T1 construct: against A431 cells EGFR-TK; endogenous in cells; host or cells: A431 cells
T1 sequence (P00533 25-1210): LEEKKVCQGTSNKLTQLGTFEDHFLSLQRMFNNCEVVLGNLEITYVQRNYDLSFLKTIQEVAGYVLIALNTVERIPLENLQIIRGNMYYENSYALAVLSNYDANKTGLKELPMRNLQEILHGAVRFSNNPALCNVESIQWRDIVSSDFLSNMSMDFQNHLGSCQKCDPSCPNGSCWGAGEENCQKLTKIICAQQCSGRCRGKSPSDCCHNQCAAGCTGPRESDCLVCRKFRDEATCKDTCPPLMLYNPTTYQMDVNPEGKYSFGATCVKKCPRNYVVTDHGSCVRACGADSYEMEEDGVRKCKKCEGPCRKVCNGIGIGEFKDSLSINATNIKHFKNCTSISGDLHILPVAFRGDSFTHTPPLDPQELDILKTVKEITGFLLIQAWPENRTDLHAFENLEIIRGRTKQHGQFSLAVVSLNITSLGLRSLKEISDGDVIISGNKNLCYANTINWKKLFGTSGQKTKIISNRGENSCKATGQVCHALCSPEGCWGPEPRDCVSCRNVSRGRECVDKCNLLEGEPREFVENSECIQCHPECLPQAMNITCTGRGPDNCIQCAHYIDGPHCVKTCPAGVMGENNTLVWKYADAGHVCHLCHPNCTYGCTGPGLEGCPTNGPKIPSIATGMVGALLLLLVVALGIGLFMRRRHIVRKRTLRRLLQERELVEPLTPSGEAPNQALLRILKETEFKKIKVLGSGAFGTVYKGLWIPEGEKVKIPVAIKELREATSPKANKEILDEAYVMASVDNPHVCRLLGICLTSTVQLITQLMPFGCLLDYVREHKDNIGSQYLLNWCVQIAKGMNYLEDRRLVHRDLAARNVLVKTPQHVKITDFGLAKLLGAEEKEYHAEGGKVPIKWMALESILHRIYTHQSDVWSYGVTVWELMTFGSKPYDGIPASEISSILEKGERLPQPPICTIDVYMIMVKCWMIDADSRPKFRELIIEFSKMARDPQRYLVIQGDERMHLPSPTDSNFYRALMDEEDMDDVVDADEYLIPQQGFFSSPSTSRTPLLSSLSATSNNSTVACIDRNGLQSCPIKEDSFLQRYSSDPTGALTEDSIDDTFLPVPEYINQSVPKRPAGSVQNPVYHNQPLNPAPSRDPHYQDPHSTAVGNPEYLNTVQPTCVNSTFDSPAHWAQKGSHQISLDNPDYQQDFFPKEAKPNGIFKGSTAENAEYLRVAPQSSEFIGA
Experimental: Inhibition Experiment of Cellular Epidermal Growth Factor Receptor Tyrosine Kinase
1) A431 cells were cultured in a medium which was prepared by adding 10% FCS into another medium comprising 50% DMEM and 50% F12.
2) A431 cells grown in six-well plates were cultured in a serum-free medium for 24 hours. During the 24 hour period the medium was replenished once after 12 hours.
3) A solution containing a compound to be assessed was added the A431 cells and the cells were cultured for 2 hours, supplemented twice by a medium free of the compound, and then EGF (100 ng/well) was added, and cultured for 5 minutes.
4) A431 cell homogenate was prepared by Laemili buffer which comprised 2% sodium dodecyl sulfonate (SDS), 5% 2-mercaptoethanol, 10% glycerol and 5 mM Tris (pH 6.8).
5) The A431 cell homogenate was heated for 5 minutes at 100° C.
6) Proteins in the A431 cell homogenates were separated by PAGE and transferred onto a nitrocellulose membrane, and an infrared reading was obtained.

[3] = test system: colorectal cancer LoVo cells; test: Cell growth inhibition assay (MTS assay), LoVo; conditions: Homo sapiens, 48 hours
[4] = test system: A431 cells; test: A431 cell growth inhibition assay (MTT assay); conditions: Homo sapiens; for pEC50: A-431, 72 hours (Table 11); for inhibition at 3 µM: A-431, concentration of 3 μM, 72 hours, read-out: Inhibition Percent (%)
Experimental: A431 Cell Growth Inhibition Assay (MTT Assay)
A431, an epidermoid carcinoma cell line; The Cell Bank, Committee on Type Culture Collection Chinese Academy of Science, Shanghai.
Mix prepared medium DMEM and F12 in the proportion of 1:1, then add FBS to a final concentration of 10%.
Dissolved the dried compound sample with 100% DMSO to 2 mM. Then diluted the dissolved compound to 20 μM with cell complete growth medium.
Prior to the assay, cultured the A431 to logarithmic phase, and then removed medium from cell monolayers and wash the cells once with sterilized PBS. Aspriated the PBS and added 2 mL trypsin solution to cover the cell growth surface, removed 1 mL trypsin solution after soaking about 1 minute. Transferred the cell-culture plate to CO2 incubator; incubated at 37° C. for 8 minutes to allow cells to dissociate. After the cells detached, added 4 mL complete growth medium containing FBS with pipette to disperse them off and mixed gently to obtain a homogeneous cell suspension. Aspirated some of the cell suspension to a sterilized polypropylene tube, and determined the cell concentration by counting in a hematocytometer chamber under a microscope. Adjusted the cell concentration with growth medium to obtain 2.5×10^4 cells per milliliter.
Added 100 μL adjusted cell suspension to the 96-well cell-culture plate and occasionally mixed the cell suspension during the seeding process. After seeding cells, incubated the plate at 37° C. overnight with 5% CO2 in the CO2 incubator for cell attachment.
After the cell attachment, added 100 μL prepared compound solutions to the corresponding wells (add PBS to the ambient wells of the plate). The final compound concentrations ranged from 10 μM to 1.52 nM. Incubated the plate at 37° C. with 5% CO2 for 72 hours in the CO2 incubator.
After the exposure to the compound, removed the cell culture supernatant. Then added 100 μL 0.5 mg/mL MTT solution which dissolved in the growth medium without FBS. Incubated the plate at 37° C. with 5% CO2 for another 4 hours to allow the MTT reaction to proceed.
After the MTT reaction, discarded the MTT reaction solution. Added 100 μL DMSO to each well, and the plate was agitated on the plate shaker for several minutes to dissolve the formazan. Then, detected the absorbance at 490 nm using microplate reader.

[5] = test system: BT474 cells; test: BT-474 cell growth inhibition assay (SRB assay); conditions: Homo sapiens, concentration of 3 μM, 72 h, read-out: Inhibition Percent (%)
Experimental: BT-474 Cell Growth Inhibition Assay (SRB Assay)
BT-474 human breast cancer cell lines were kindly provided by Dr. Changnian Liu, Pharmaron Beijing Co., Ltd.
BT-474 cells were cultured in 37° C., 5% CO2, saturated humidity until logarithmic phase. Discarded culture medium, washed cells once by PBS. Added 1 ml Trypsin/EDTA solution, stood at 37° C. for 5 min, allowed the cells to detach. Added culture medium, adjusted the cells density to 1×10^5 cells/ml.
Day 0, added 100 μl/well cells suspension to 96-well cell culture plates. Incubated overnight to let the cells attach completely.
Day 1, compounds (2 mM in DMSO as stock solution) was diluted to 20 μM in EMEM. Then a fourfold serial dilution was made. These diluted compounds were made as 10× reaction solutions, and the concentration of DMSO was kept at 1%.
Added 80 μl culture medium and 20 μl 10× compound reaction solution to the testing wells, or vehicle control to the control wells. Co-incubated cells with compounds for another 72 h.
Day 3, fixed cellular protein by the addition of 100 μl/well of 10% TCA (diluting from 50% TCA) at 4° C. for 1 h. Rinsed TCA using plate washer, and washed five times using distilled water. Removed the residual wash solution with a piece of absorbent paper. Added 100 μl/well 0.4% SRB solution, allowed a 15-30 min staining period. Removed the SRB, and washed the culture plates five times using 1% acetic acid. Removed the residual wash solution with a piece of absorbent paper. Air-dried the culture plates, dissolved the protein-bound dye with 100 μl/well of 10 mM Tris base solution. Shook the plates until the dye was dissolved completely.

C[C@H](Nc1ncnc2ccc(NC(=O)C=C3CCNCC3)cc12)c1ccccc1 [Example 34, N-(4-((S)-1-phenylethylamino)quinazolin-6-yl)-2-(piperidin-4-ylidene)acetamide]
pEC50 [1]: 4.89 | pEC50 [2]: 6.12 | inhibition at 3 µM [2]: 68%

C#Cc1cccc(Nc2ncnc3ccc(NC(=O)C=C4CCN(CCOC)CC4)cc23)c1 [Example 7, N-(4-(3-ethynylphenylamino)quinazolin-6-yl)-2-(1-(2-methoxyethyl)piperidin-4-ylidene)acetamide]
pEC50 [1]: 5.30 | pEC50 [2]: 6.40 | inhibition at 3 µM [2]: 65%

COc1cccc2c1C(=O)c1c(O)c3c(c(O)c1C2=O)C[C@@](O)(C(=O)CO)C[C@@H]3O[C@H]1C[C@H](N)[C@H](O)[C@H](C)O1 [Adriamycin, reference compound]
pEC50 [3]: 5.82

C#Cc1cccc(Nc2ncnc3cc(OCCCOC)c(NC(=O)C=C4CCNCC4)cc23)c1 [Example 50, N-(4-(3-ethynylphenylamino)-7-(3-methoxypropoxy)quinazolin-6-yl)-2-(piperidin-4-ylidene)acetamide]
pEC50 [1]: 6.82 | inhibition at 3 µM [2]: 95%

O=C(C=C1CCNCC1)Nc1ccc2ncnc(Nc3cccc(Cl)c3)c2c1 [Example 36, N-(4-(3-chlorophenylamino)quinazolin-6-yl)-2-(piperidin-4-ylidene)acetamide]
pEC50 [1]: 4.52 | pEC50 [2]: 6.01 | inhibition at 3 µM [2]: 57%

O=C(C=C1CCNCC1)Nc1ccc2ncnc(Nc3ccc4[nH]ccc4c3)c2c1 [Example 41, N-(4-(1H-indol-5-ylamino)quinazolin-6-yl)-2-(piperidin-4-ylidene)acetamide]
pEC50 [1]: 5.82 | inhibition at 3 µM [2]: 71%

CCOc1cc2ncc(C#N)c(Nc3ccc(OCc4ccccn4)c(Cl)c3)c2cc1NC(=O)C=C1CCNCC1 [Example 143, N-(4-(3-chloro-4-(pyridin-2-ylmethoxy)phenylamino)-3-cyano-7-ethoxyquinolin-6-yl)-2-(piperidin-4-ylidene)acetamide]
pEC50 [4]: 5.84 | inhibition at 3 µM [4]: 70% | pEC50 [1]: 6.60 | inhibition at 3 µM [2]: 96% | inhibition at 3 µM [5]: 55%

C#Cc1cccc(Nc2c(C#N)cnc3cc(OCC)c(NC(=O)C=C4CCN(C)CC4)cc23)c1 [Example 158, N-(3-cyano-7-ethoxy-4-(3-ethynylphenylamino)quinolin-6-yl)-2-(1-methylpiperidin-4-ylidene)acetamide]
inhibition at 3 µM [4]: 90% | inhibition at 3 µM [5]: 57%

CCOc1cc2ncc(C#N)c(Nc3ccc(OCc4cccc(F)c4)c(Cl)c3)c2cc1NC(=O)C=C1CCNCC1 [Example 145, N-(4-(4-(3-fluorobenzyloxy)-3-chlorophenylamino)-3-cyano-7-ethoxyquinolin-6-yl)-2-(piperidin-4-ylidene)acetamide]
pEC50 [4]: 5.47 | inhibition at 3 µM [4]: 49% | inhibition at 3 µM [5]: 80%

C#Cc1cccc(Nc2ncnc3ccc(NC(=O)C=C4CCN(C)CC4)cc23)c1 [Example 4, N-(4-(3-ethynylphenylamino)quinazolin-6-yl)-2-(1-methylpiperidin-4-ylidene)acetamide]
pEC50 [1]: 5.74 | pEC50 [2]: 6.24 | inhibition at 3 µM [2]: 78%

COCCOc1cc2ncc(C#N)c(Nc3ccc(F)c(Cl)c3)c2cc1NC(=O)C=C1CCNCC1 [Example 149, N-(4-(3-chloro-4-fluorophenylamino)-3-cyano-7-(2-methoxyethoxy)quinolin-6-yl)-2-(piperidin-4-ylidene)acetamide]
inhibition at 3 µM [4]: 92% | inhibition at 3 µM [5]: 53%

N#Cc1cnc2ccc(NC(=O)C=C3CCNCC3)cc2c1Nc1cccc(Br)c1 [Example 172, N-(4-(3-bromophenylamino)-3-cyanoquinolin-6-yl)-2-(piperidin-4-ylidene)acetamide]
inhibition at 3 µM [4]: 84% | inhibition at 3 µM [5]: 61%

C#Cc1cccc(Nc2c(C#N)cnc3cc(OCC)c(NC(=O)C=C4CCNCC4)cc23)c1 [Example 152, N-(3-cyano-7-ethoxy-4-(3-ethynylphenylamino)quinolin-6-yl)-2-(piperidin-4-ylidene)acetamide]
pEC50 [4]: 6.85 | inhibition at 3 µM [4]: 95% | inhibition at 3 µM [5]: 59%

N#Cc1cnc2ccc(NC(=O)C=C3CCNCC3)cc2c1Nc1ccc(OCc2ccccn2)c(Cl)c1 [Example 166, N-(4-(3-chloro-4-(pyridin-2-ylmethoxy)phenylamino)-3-cyanoquinolin-6-yl)-2-(ppiperidin-4-ylidene)acetamide]
inhibition at 3 µM [4]: 49% | inhibition at 3 µM [5]: 85%

N#Cc1cnc2ccc(N)cc2c1Nc1cccc(Br)c1 [Example 134, 6-amino-4-(3-bromophenylamino)quinoline-3-carbonitrile]
pEC50 [1]: 6.05 | inhibition at 3 µM [2]: 59%

N#Cc1cnc2ccc(NC(=O)C=C3CCNCC3)cc2c1Nc1ccc(F)c(Cl)c1 [Example 173, N-(4-(3-chloro-4-fluorophenylamino)-3-cyanoquinolin-6-yl)-2-(piperidin-4-ylidene)acetamide]
inhibition at 3 µM [4]: 87% | inhibition at 3 µM [5]: 44%

COCCN1CCC(=CC(=O)Nc2cc3c(Nc4ccc(OCc5ccccn5)c(Cl)c4)ncnc3cc2OC)CC1 [Example 118, N-(4-(3-chloro-4-(pyridin-2-ylmethoxy)phenylamino)-7-methoxyquinazolin-6-yl)-2-(1-(2-methoxyethyl)piperidin-4-ylidene)acetamide]
pEC50 [1]: 5.72 | inhibition at 3 µM [2]: 41%

C#Cc1cccc(Nc2ncnc3ccc(NC(=O)C=C4CCNCC4)cc23)c1 [Example 3, N-(4-(3-ethynylphenylamino)quinazolin-6-yl)-2-(piperidin-4-ylidene)acetamide]
pEC50 [1]: 5.70 | pEC50 [2]: 6.82 | inhibition at 3 µM [2]: 85%

COCCOc1cc2ncc(C#N)c(Nc3ccc(OCc4cccc(F)c4)c(Cl)c3)c2cc1NC(=O)C=C1CCNCC1 [Example 167, N-(4-(4-(3-fluorobenzyloxy)-3-chlorophenylamino)-3-cyano-7-(2-methoxyethoxy)quinolin-6-yl)-2-(piperidin-4-ylidene)acetamide]
inhibition at 3 µM [4]: 45% | inhibition at 3 µM [5]: 84%

C#Cc1cccc(Nc2c(C#N)cnc3ccc(NC(=O)C=C4CCNCC4)cc23)c1 [Example 170, N-(3-cyano-4-(3-ethynylphenylamino)quinolin-6-yl)-2-(piperidin-4-ylidene)acetamide]
inhibition at 3 µM [4]: 88% | inhibition at 3 µM [5]: 56%
